Assay results reported in patent US11434205B2, “Substituted imidazole carboxylate derivatives and the use thereof” (priority 2018, dated 2022).
Read-outs that look alike come from different tables or passages of the source.

Legend:
[1] = system: rats; assay type: in vivo, rat; conditions: rats of the MAP/HR figures, 2×ED50, tail vein; same value in min
Experimental: The Effects of the Compounds on the Circulatory Function were Measured in Rats Using a Small Animal Implanted Physiological Signal Telemetry System
The anesthetic activity of the compounds was assessed in rats using a LORR assay and the up and down method was used to determine ED50. […] A small animal implantable physiological signal telemetry system from DSI (Data Science International, Inc.) was used to measure the changes in heart rate (HR) and blood pressure in rats during 30 min after administration. Then mean arterial pressure (MAP) and HR were used as representative indicators to determine hemodynamic stability of the compounds of the present invention in rats.
A small animal implantable physiological signal telemetry system from DSI (Data Science International, Inc.) including implants (RATHD-521, DSI, United States), receiver boards (RPC-1, DSI, United States), signal conversion devices (DEM, DSI, USA), perfusion glue (DSI, USA), fibrin membrane (DSI, USA), etc.
First, animal models were established. A left ventricular catheter, an abdominal aortic catheter and ECG wires were placed into rats. At least one week after surgery, data were recorded.
Administration procedure: rats were put into a restraint device with a 20 G indwelling catheter placed into a lateral tail vein. After administration of 0.2 mL heparin, a pre-filled extension tube was attached and taped to the tail vein to secure the extension tube. Then the rats were removed from the restraint device to a cage before placing them together on the signal receiver. […] Finally, the pharmacological effects, adverse reactions, and behavioural manifestations of the rats were observed and recorded
Data collection: After setting the data collection parameters on the software, the power of the implant was turned on to start data collection. In this experiment, data recording frequency was set to 15 s. Data collection was continuously recorded for 30 min before and after administration of the drugs in rats. After data acquisition, the test was stopped.

[2] = system: rats; assay type: in vivo, rat; conditions: rats of the MAP/HR figures, 2×ED50, tail vein
[3] = system: secretion of corticosterone, H295R cell line; test: cells; assay type: cell-based; conditions: for EC50: read-out: EC50 (Corticosterone)
Experimental: (§1) The Effects of the Compounds on Adrenocortical Function In Vitro Test
(§2) Then secretion of the cortisol and corticosterone in the supernatant, was measured using HPLC-MS/MS method to determine whether the compounds of the present invention had adrenotoxic potential.

[4] = system: secretion of cortisol, H295R cell line; test: cells; assay type: cell-based; conditions: for EC50: read-out: EC50 (Cortisol)
Experimental: as §1, §2

[5] = H295R cell line, 0.1-10000 nM, HPLC-MS/MS, Table E3
[6] = H295R cell line, 0.1-10000 nM, HPLC-MS/MS, Table D3

Row | Structure (SMILES) | recovery time of the test animals' righting reflex [1] | recovery time of the test animals' righting reflex [2] | EC50 ([3]; Homo sapiens, NCI-H295R) | EC50 ([4]; Homo sapiens, NCI-H295R) | also measured
1 | COCC1(COC(=O)c2c(Cl)ncn2[C@H](C)c2ccccc2)CCC1 [Compound E102] | 4.80 min | 288 s | > 10 µM | > 10 µM | Corticosterone as an indicator to determine the presence of inhibition [3, 5]: 0; Cortisol as an indicator to determine the presence of inhibition [4, 5]: 0
2 | CC(=O)C1(OC(=O)c2cncn2[C@H](C)c2ccccc2)CCC1 [Compound C2] | 3.03 min | 182 s | – | – | –
3 | CCOC(=O)c1c(C(F)(F)F)ncn1[C@H](C)c1ccccc1 [Compound E164] | 1.28 min | 77 s | > 10 µM | > 10 µM | Corticosterone as an indicator to determine the presence of inhibition [3, 5]: 0; Cortisol as an indicator to determine the presence of inhibition [4, 5]: 0
4 | C[C@H](c1ccccc1)n1cncc1C(=O)OCC[S+](C)[O-] (some centres unmarked) [Compound C10] | – | – | > 10 µM | > 10 µM | Corticosterone as an indicator to determine the presence of inhibition ([3]; H295R, Table C3): 0; Cortisol as an indicator to determine the presence of inhibition ([4]; H295R, Table C3): 0
5 | CSCC1(CSC(=O)c2cncn2[C@H](C)c2ccccc2)CCC1 [Compound A46] | – | – | > 0.1 µM | > 0.1 µM | Corticosterone as an indicator to determine the presence of inhibition ([3]; H295R, Table A3): 0; Cortisol as an indicator to determine the presence of inhibition ([4]; H295R, Table A3): 0
6 | C/C=C/C1(OC(=O)c2cncn2[C@H](C)c2ccccc2)CCC1 [Compound D20] | – | – | > 10 µM | > 10 µM | Corticosterone as an indicator to determine the presence of inhibition [3, 6]: 0; Cortisol as an indicator to determine the presence of inhibition [4, 6]: 0
7 | C[C@H](c1ccccc1)n1cncc1C(=O)SCC1CCC1 [Compound A27] | 2.10 min | 126 s | – | – | –
8 | C=CC#CC(C)OC(=O)c1c(Cl)ncn1[C@H](C)c1ccccc1 (some centres unmarked) [Compound E121] | 3.07 min | 184 s | – | – | –
9 | CC(=O)CC(C)(C)OC(=O)c1cncn1[C@H](C)c1ccccc1 [Compound C13] | – | – | > 10 µM | > 10 µM | Corticosterone as an indicator to determine the presence of inhibition ([3]; H295R, Table C3): 0; Cortisol as an indicator to determine the presence of inhibition ([4]; H295R, Table C3): 0
10 | C=C=CC1(OC(=O)c2c(C(F)(F)F)ncn2[C@H](C)c2ccccc2)COC1 [Compound E163] | 1.58 min | 95 s | – | – | Corticosterone as an indicator to determine the presence of inhibition [3, 5]: 0; EC50 [3, 5]: > 10 µM; Cortisol as an indicator to determine the presence of inhibition [4, 5]: 0; EC50 [4, 5]: > 10 µM
11 | CC(=O)C1(COC(=O)c2cncn2[C@H](C)c2ccccc2)CC1 [Compound C4] | – | – | > 1 µM | > 1 µM | Corticosterone as an indicator to determine the presence of inhibition ([3]; H295R, Table C3): 0; Cortisol as an indicator to determine the presence of inhibition ([4]; H295R, Table C3): 0
12 | CC(=O)C1(COC(=O)c2cncn2[C@H](C)c2ccccc2)CCC1 [Compound C11] | – | – | > 1 µM | > 1 µM | Corticosterone as an indicator to determine the presence of inhibition ([3]; H295R, Table C3): 0; Cortisol as an indicator to determine the presence of inhibition ([4]; H295R, Table C3): 0
13 | C[C@H](c1ccccc1)n1cncc1C(=O)SCC1CC(F)(F)C1 [Compound A45] | 3.33 min | 200 s | – | – | –
14 | COCC1(COC(=O)c2c(C(F)(F)F)ncn2[C@H](C)c2ccccc2)CCC1 [Compound E157] | 3.03 min | 182 s | > 10 µM | > 10 µM | Corticosterone as an indicator to determine the presence of inhibition [3, 5]: 0; Cortisol as an indicator to determine the presence of inhibition [4, 5]: 0
15 | C=C(OCC)C1(OC(=O)c2cncn2[C@H](C)c2ccccc2)COC1 [Compound D2] | 5.92 min | 355 s | > 1 µM | > 1 µM | Corticosterone as an indicator to determine the presence of inhibition [3, 6]: 0; Cortisol as an indicator to determine the presence of inhibition [4, 6]: 0
